Measurements as given in EP1285971B1, “Methods for the phenotypic and genotypic assessment of the drug sensitivity of HIV integrase variants” (Tibotec Pharmaceuticals Ltd., priority 2001, dated 2003).
pEC50: −log10 of the molar value.

Legend:
Assay in all cases: microbe, parasite or virus in culture
Conditions in all cases: for fold change: fold change in EC50
patient_146514 = format: cell-based, HIV
Method: (§1) The integrase encoding sequence was amplified from either wildtype HIV-1 (IIIB) or NL4.3 virus, or HXB2D site-directed mutant viruses containing mutations in integrase (such as T66I, S153Y, M154I, or combinations thereof) (Hazuda et al., Science 2000, 287, 646-650), or patient samples. Starting from RNA, extracted from virus supernatant or plasma using the QIAamp® viral RNA extraction kit (Qiagen), cDNA was synthesized by reverse transcription (Expand TM reverse transcriptase, 30 min at 42°C) with the primer 3'EGINT10 (SEQ ID NO 11), followed by a nested PCR. The outer PCR was performed with the primers 5'EGINT1 (SEQ ID NO 1) and 3'EGINT10 (SEQ ID NO 11) (ΔR-IN-vif construct) or 5'EGINT3 (SEQ ID NO 4) and 3'EGINT10 (SEQ ID NO 11) (ΔIN construct) (Expand™ High Fidelity PCR system), and 5 µl of the outer product was used for an inner PCR with primers 5'EGINT2 (SEQ ID NO 3) and 3'EGINT11 (SEQ ID NO 12) (ΔR-IN-vif construct) or 5'EGINT4 (SEQ ID NO 5) and 3'EGINT6 (SEQ ID NO 7) (ΔIN construct). In a second protocol the outer primers were identical as described above, the inner primers are 5'EGINT5 (SEQ ID NO 6) and 3'EGINT6 (SEQ ID NO 7). The amplicons can be used for genotyping and phenotyping. Cycling conditions for both PCRs are denaturation for 3 min at 95°C, followed by 30 cycles of 1 min 90°C, 30 sec 55°C, and 2 min 72°C. A final extension was performed at 72°C for 10 min. For recombination, PCR products are purified using the QiaQuick® 96 PCR BioRobot kit (Qiagen), according to the manufacturer's protocol. If the protocol starts from DNA containing the HIV material such as proviral DNA, the reverse transcriptase step is not needed. The nested approach is also not needed when starting from proviral DNA. The obtained amplicons were sequenced using the primers: In_seq1F (SEQ ID NO 17), In_seq2F (SEQ ID NO 18), In_seq3F (SEQ ID NO 19), IN_seq1R (SEQ ID NO 20), IN_seq2R (SEQ ID NO 21), and IN_seq3R (SEQ ID NO 22).
(§2) A ΔR-IN-vif or ΔIN deletion construct was generated by site-directed mutagenesis on the template pSV40HXB2D with the primers MUT-IN1 (SEQ ID NO 13) and MUT-IN2 (ΔR-IN-vif construct) (SEQ ID NO 14) or MUT-IN3 (SEQ ID NO 15) and MUT-IN4 (SEQ ID NO 16) (ΔIN construct) (protocol Site-directed mutagenesis kit, Stratagene). After DpnI digestion for removal of the methylated template DNA, the construct was digested with SmaI and ligated to circulize the plasmid. The plasmid was transformed into competent cells such as Top10 cells, and colonies were screened for the presence of the deletion construct. The IN-deletion construct was checked by sequence analysis with primers 5'EGINT1 (SEQ ID NO 1) or […] and 3'EGINT10 (SEQ ID NO 11) or 3'EGINT11 (SEQ ID NO 12). For use in recombination experiments, large-scale plasmid DNA preparations were linearized by SmaI digestion and recombined with PCR amplified integrase genes from wild type, mutant, or patient viruses. The plasmid containing the integrase deletion (ΔIN) has been deposited pSV40HXB2D-ΔIN. The sequence of said plasmid is 14377 nucleotides long. The ΔR-IN-vif deletion construct is 13975 nucleotides long. The pSV40HXB2D-ΔIN was deposited at the Belgian Coordinated Collections of Micro-Organisms located at the Universiteit Gent - Laboratorium voor Moleculaire Biologie on August 5, 2002 and the accession number is LMBP 4574.
(§3) Recombinant virus was produced by co-transfection by electroporation of the SmaI-linearized IN-deletion construct and the integrase amplicon into MT4 cells or MT4 cells equipped with an LTR driven reporter gene construct. Production of recombinant virus was evaluated by scoring the cytopathogenic effect (CPE) that is induced by HIV-infection of MT4 cells or by the LTR-driven reporter signal induced by HIV infection in MT4 reporter cells.

NL 4-3 = format: cell-based, HIV-1
Method: as §1, §2, §3

WT III B = format: cell-based, HIV-1
Method: as §1, §2, §3

[1] = AVE 2, patient_146514, primer set 3
[2] = Human immunodeficiency virus 1, AVE 2, patient_146514, primer set 3
[3] = Human immunodeficiency virus 1, AVE 1, NL 4-3, primer set 3
[4] = Human immunodeficiency virus 1, NL43, AVE 4, NL4-3, primer set 4
[5] = Human immunodeficiency virus 1, AVE 3, WT III B, primer set 3
[6] = Human immunodeficiency virus 1, AVE 5, WT III B, primer set 4

| Compound | fold change (patient_146514; [1]) | pEC50 (patient_146514; [2]) | fold change (NL 4-3; AVE 1, NL 4-3, primer set 3) | fold change (NL 4-3; AVE 4, NL4-3, primer set 4) | pEC50 (NL 4-3; [3]) | pEC50 (NL 4-3; [4]) | fold change (WT III B; AVE 3, WT III B, primer set 3) | fold change (WT III B; AVE 5, WT III B, primer set 4) | pEC50 (WT III B; [5]) | pEC50 (WT III B; [6]) | pEC50 (patient_146514; [1]) | pEC50 (NL 4-3; AVE 1, NL 4-3, primer set 3) | pEC50 (WT III B; AVE 3, WT III B, primer set 3) | pEC50 (WT III B; AVE 5, WT III B, primer set 4) |
| --- | --- | --- | --- | --- | --- | --- | --- | --- | --- | --- | --- | --- | --- | --- |
| Nc1ccn([C@@H]2CS[C@H](CO)O2)c(=O)n1 [Compound 3TC, Lamivudine] | 2,5 | 5.46 | 0,6 | 2,0 | 6.09 | 5.56 | 0,3 | 1,2 | 6.42 | 5.77 |  |  |  |  |
| CC(C)c1nc(CN(C)C(=O)N[C@H](C(=O)N[C@@H](Cc2ccccc2)C[C@H](O)[C@H](Cc2ccccc2)NC(=O)OCc2cncs2)C(C)C)cs1 [RTV, ritonavir] | 1,3 | 6.72 | 0,6 | 1,2 | 7.06 | 6.77 | 0,3 | 1,0 | 7.35 | 6.81 |  |  |  |  |
| Cc1cc(C#N)cc(C)c1Oc1nc(Nc2ccc(C#N)cc2)nc(N)c1Br [Compound 1, 4-[[6-amino-5-bromo-2-[(4-cyanophenyl)amino]-4-pyrimidinyl]oxy]-3,5-dimethyl-benzonitrile] | 1,7 |  | 1,0 | 2,3 |  | 8.64 | 0,9 | 1,2 |  |  | 8.77 | 9.00 | 9.05 | 8.92 |
| c1cc(CN2CCCNCCNCCCNCC2)ccc1CN1CCCNCCNCCCNCC1 [AMD3100] | 1,0 | 7.26 | 0,9 | 1,1 | 7.30 | 7.20 | 0,8 | 0,8 | 7.35 | 7.38 |  |  |  |  |
| Cc1ccnc2c1NC(=O)c1cccnc1N2C1CC1 [NVP, Nevirapine] | 1,7 | 6.82 | 1,1 | 1,7 | 7.01 | 6.82 | 0,8 | 1,6 | 7.18 | 6.87 |  |  |  |  |
| CC(C)(C)NC(=O)[C@@H]1CN(Cc2cccnc2)CCN1C[C@@H](O)C[C@@H](Cc1ccccc1)C(=O)N[C@H]1c2ccccc2C[C@H]1O [IDV, Indinavir] | 1,3 | 7.25 | 0,7 | 1,2 | 7.50 | 7.29 | 0,4 | 0,9 | 7.74 | 7.38 |  |  |  |  |
| Cc1cn([C@H]2C[C@H](N=[N+]=[N-])[C@@H](CO)O2)c(=O)[nH]c1=O [AZT, Zidovudine] | 0,9 | 6.82 | 0,9 | 1,1 | 6.84 | 6.74 |  | 0,9 |  | 6.84 |  |  |  |  |
